16 compounds from patent US20090281142A1, “THIAZOLE DERIVATIVE” (ASTELLAS PHARMA INC., priority 2005, published 2009) can be followed below.

Test [1] deals with T1, recombinant human liver GK (GST-hGK2) (Homo sapiens, UniProt P35557).
T1 construct: cloning of ORF (open reading frame) was carried out by the following procedure based on AK122876.1; made in house; host or cells: E. coli
T1 sequence (P35557 1-466 isoform P35557-2): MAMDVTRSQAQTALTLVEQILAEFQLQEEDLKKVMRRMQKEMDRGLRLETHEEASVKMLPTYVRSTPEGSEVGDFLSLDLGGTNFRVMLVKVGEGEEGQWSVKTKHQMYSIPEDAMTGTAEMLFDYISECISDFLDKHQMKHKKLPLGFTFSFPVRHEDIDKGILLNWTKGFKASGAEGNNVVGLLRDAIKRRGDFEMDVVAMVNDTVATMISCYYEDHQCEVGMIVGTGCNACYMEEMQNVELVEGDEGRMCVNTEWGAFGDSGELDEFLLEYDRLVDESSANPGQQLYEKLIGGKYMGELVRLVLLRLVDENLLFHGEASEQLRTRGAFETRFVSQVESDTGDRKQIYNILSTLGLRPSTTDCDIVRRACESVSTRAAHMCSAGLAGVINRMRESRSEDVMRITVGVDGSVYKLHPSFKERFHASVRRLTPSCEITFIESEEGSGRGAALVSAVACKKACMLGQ
Description: Measurement of GK activation. The format is biochemical. To be noted: 10 min; 10 μM test agent, 5 mM glucose, increase of absorbance (340 nm) in first 10 minutes relative to DMSO control. The protocol:
Measurement of the GK activation by test agents was carried out in accordance with the method described in Science 301: 370-373, 2003, and by partially modifying this. The GK activity was measured as a change in absorbance based on the amount of NADPH which is converted from NADP (nicotinamide adenine dinucleotide phosphate) when glucose 6-phosphate produced by GK using glucose as the substrate is […] glucose-6-phosphate dehydrogenase.
Regarding the recombinant human liver GK (GST-hGK2) to be used in this assay, it was used by expressing as GST (glutathione S transferase)-fusion protein in E. coli and purifying by a Glutathione Sepharose column.
Regarding the sequence of glucokinase isoform 2, cloning of ORF (open reading frame) was carried out by the following procedure based on AK122876.1 (accession number). Using pME18S-FL3-Glucokinase isoform 2 as the template, PCR (polymerase chain reaction) was carried out using 5′-[…]-3′(SEQ ID NO:1) as the 5′ primer and 5′-[…]-3′ (SEQ ID NO:2) as the 3′ primer, and the PCR product was TA-cloned into pGEM-T easy vector. The sequence of this clone was confirmed by carrying out its sequencing. Thereafter, a fragment digested with EcoRI and XhoI was ligated to a vector pGEX-5X-1 digested in the same manner to prepare pGEX-human Glucokinase 2.
Regarding the enzyme reaction, the measurement was carried out at 27° C. using a 96 well flat bottom plate. As the enzyme mixed liquid, 25 mM HEPES pH 7.4; 25 mM KCl; 2 mM MgCl2; 1 mM ATP; 0.1% BSA; 1 mM DTT; 0.8 mM NADP; 2.5 U/ml glucose-6-phosphate dehydrogenase; GST-hGK2 (all in final concentration, however, the amount of GST-hGK2 was adjusted in such a manner that increase of absorbance of the DMSO control in 10 minutes (ΔOD) becomes about 0.12) was prepared. The enzyme mixed liquid was dispensed in 89 μl portions into the aforementioned plate, and a test agent dissolved in DMSO or the DMSO control was added thereto in 1 μl portions. Subsequently, glucose (5 mM in final concentration) was added as the substrate solution in 10 μl portions and the reaction was started at 27° C.
After commencement of the reaction, the absorbance was measured at a wavelength of 340 nm for 15 minutes at intervals of about 30 seconds, and the GK activation of each compound was calculated from the increase of absorbance during the first 10 minutes (ΔOD). Index of the GK activation of each test agent was calculated from the following formula as the GK activation (%).
GK activation (%)=[(ΔODTest)−(ΔODCont)]/(ΔODCont)×100
ΔODTest: ΔOD at 10 μM test agent
ΔODCont: ΔOD of DMSO control

For another test, the system named is C57BL6 mice. The test can be described thus: Hypoglycemic action in C57BL6 mice. It is filed as in vivo. To be noted: 10 mg/kg oral, 1 hour after administration, freely ingesting C57BL6 mice. The protocol: Body weights of freely ingesting C57BL6 mice (N=5) were measured. Each test compound was dissolved in Cremophor (registered trademark) solvent (Cremophor:DMSO:Water 5:5:90, v/v/v) to a concentration of 1 mg/ml. To each mouse was orally administered 10 ml/kg of the agent liquid (corresponds to the test compound of 10 mg/kg) or 10 ml/kg of the solvent control. Just before the administration of the test compound, about 60 μl of blood was collected from the venous plexus of the fundus of the eye using a capillary. Blood was collected in the same manner 1 or 4 hours after the administration of the test compound. Blood plasma was separated from the thus collected blood to measure the blood glucose level. The blood glucose level after 1 or 4 hours of the administration of the test compound was compared with the blood glucose level of the solvent control group at the same period of time.

In a further test the test system is ICR mice. The test can be described thus: Action upon high blood glucose level after oral glucose loading in ICR mice. The format is in vivo. To be noted: 3 mg/kg oral, fasted ICR mice, AUC of blood glucose from administration until 2 hours after oral glucose loading (2 g/kg) vs solvent control. The protocol: After overnight fasting, body weights of ICR mice (N=5) were measured. Each test compound was dissolved in Cremophor solvent (Cremophor:DMSO:Water 5:5:90, v/v/v) to a concentration of 0.3 mg/ml. To each mouse was orally administered 10 ml/kg of the agent liquid (corresponds to the test compound of 3 mg/kg) or 10 ml/kg of the solvent control. Just before the administration of the test compound, about 60 μl of blood was collected from the venous plexus of the fundus of the eye using a capillary. After 30 minutes of the administration of the test compound, 200 mg/ml of glucose aqueous solution was orally administered at a dose of 10 ml/kg (corresponds to 2 g/kg). Just before the administration of glucose, about 60 μl of blood was collected from the venous plexus of the fundus of the eye using a capillary. Blood was collected in the same manner after 0.5, 1 and 2 hours of the glucose administration. Blood plasma was separated from the thus collected blood to measure the blood glucose level. AUC of the blood glucose level after the administration of the test compound until 2 hours after the glucose loading was compared with AUC of the solvent control group within the same period of time.

Take `O=C(Nc1nc(CC(CO)CO)cs1)/C(=C/C1CCCC1)c1ccc(S(=O)(=O)C2CC2)cc1` [Ex 70, (2E)-3-cyclopentyl-2-[4-(cyclopropylsulfonyl)phenyl]-N-{4-[3-hydroxy-2-(hydroxymethyl)propyl]-1,3-thiazol-2-yl} acrylamide]: the activation at 10 µM in test [1] worked out at 244%.

With `CS(=O)(=O)c1ccc(/C(=C\C2CCCC2)C(=O)Nc2nc(C(O)CO)cs2)cc1` (stereo not drawn) [Ex 6, (2E)-3-cyclopentyl-N-[4-(1,2-dihydroxyethyl)-1,3-thiazol-2-yl]-2-[4-(methylsulfonyl)phenyl]acrylamide], the “blood glucose level lowered in comparison with the solvent control group” value in the test with C57BL6 mice is listed as 22%. Besides, in test [1], the activation at 10 µM turned out to be 299%.

As to `O=C(Nc1nc([C@H](O)CO)cs1)/C(=C/C1CCCC1)c1ccc(S(=O)(=O)C2CC2)cc1` [Ex 13, (2E)-3-cyclopentyl-2-[4-(cyclopropylsulfonyl)phenyl]-N-{4-[(1S)-1,2-dihydroxyethyl]-1,3-thiazol-2-yl}acrylamide], the “Blood glucose lowering ratio (%)” value in the test with ICR mice was determined as 19%. For the same compound, in test [1], the activation at 10 µM turned out to be 293%.

Regarding `CC(=O)OCC(O)c1csc(NC(=O)/C(=C/C2CCCC2)c2ccc(S(C)(=O)=O)cc2)n1` (stereo not drawn) [Ex 44], the activation at 10 µM in test [1] was 283%.

Regarding `CS(=O)(=O)c1ccc([C@@H](CC2CCCC2)C(=O)Nc2nc(C(O)CO)cs2)cc1` (stereo partly drawn) [Ex 5, (2R)-3-cyclopentyl-N-[4-(1,2-dihydroxyethyl)-1,3-thiazol-2-yl]-2-[4-(methylsulfonyl)phenyl]propanamide], in test [1], the activation at 10 µM was 263%.

With `CC1(C)OCC(c2csc(NC(=O)/C(=C/C3CCCC3)c3ccc(S(C)(=O)=O)c(Cl)c3)n2)O1` (stereo not drawn) [Ex 10, (2E)-2-[3-chloro-4-(methylsulfonyl)phenyl]-3-cyclopentyl-N-[4-(2,2-dimethyl-1,3-dioxolan-4-yl)-1,3-thiazol-2-yl]acrylamide], in test [1], the activation at 10 µM amounted to 294%.

Regarding `CC1(C)OCC(c2csc(NC(=O)/C(=C/C3CCCC3)c3ccc(S(C)(=O)=O)cc3)n2)O1` (stereo not drawn) [Ex 38, (2E)-3-cyclopentyl-N-[4-(2,2-dimethyl-1,3-dioxolan-4-yl)-1,3-thiazol-2-yl]-2-[4-(methylsulfonyl)phenyl]acrylamide], the activation at 10 µM in test [1] worked out at 239%.

As for `CS(=O)(=O)c1ccc([C@@H](CC2CCCC2)C(=O)Nc2nc(C(O)CO)c(Cl)s2)cc1` (stereo partly drawn) [Ex 49], in test [1], the activation at 10 µM was determined as 273%.

As to `O=C(Nc1nc(C(O)CCO)cs1)/C(=C/C1CCCC1)c1ccc(S(=O)(=O)C2CC2)cc1` (stereo not drawn) [Ex 71], the “Blood glucose lowering ratio (%)” value in the test on ICR mice amounted to 22%. In addition, the activation at 10 µM in test [1] was determined as 240%.

As for `O=C(Nc1nc(C(O)CO)cs1)[C@H](CC1CCCC1)c1ccc(S(=O)(=O)C2CC2)cc1` (stereo partly drawn) [Ex 66], the activation at 10 µM in test [1] turned out to be 267%.

As for `O=C(Nc1nc(C(=O)CO)cs1)/C(=C/C1CCCC1)c1ccc(S(=O)(=O)C2CC2)cc1` [Ex 77, (2E)-3-cyclopentyl-2-[4-(cyclopropylsulfonyl)phenyl]-N-(4-glycoloyl-1,3-thiazol-2-yl)acrylamide], in the test with ICR mice, the “Blood glucose lowering ratio (%)” value is on record as 18%. Also, in test [1], the activation at 10 µM amounted to 217%.

For the compound `CC(O)(CO)c1csc(NC(=O)[C@H](CC2CCCC2)c2ccc(S(=O)(=O)C3CC3)cc2)n1` (stereo partly drawn) [Ex 74, (2R)-3-cyclopentyl-2-[4-(cyclopropylsulfonyl)phenyl]-N-[4-(1,2-dihydroxy-1-methylethyl)-1,3-thiazol-2-yl]propanamide], the “Blood glucose lowering ratio (%)” value with ICR mice was determined as 23%. Besides, in test [1], the activation at 10 µM came to 260%.

For `CC(O)(CO)c1csc(NC(=O)/C(=C/C2CCCC2)c2ccc(S(=O)(=O)C3CC3)cc2)n1` (stereo not drawn) [Ex 63, (2E)-3-cyclopentyl-2-[4-(cyclopropylsulfonyl)phenyl]-N-[4-(1,2-dihydroxy-1-methylethyl)-1,3-thiazol-2-yl]acrylamide], in the test with ICR mice, the “Blood glucose lowering ratio (%)” value is recorded as 35%. Besides, the activation at 10 µM in test [1] is 241%.

As for `O=C(Nc1nc(C(O)CO)cs1)C(CC1CCCC1)c1ccc(S(=O)(=O)C(F)(F)F)cc1` (stereo not drawn) [Ex 7, 3-cyclopentyl-N-[4-(1,2-dihydroxyethyl)-1,3-thiazol-2-yl]-2-{4-[(trifluoromethyl)sulfonyl]phenyl}propanamide], in test [1], the activation at 10 µM was 214%.

In the case of `O=C(Nc1nc(C(O)CO)cs1)/C(=C/C1CCCC1)c1ccc(S(=O)(=O)C2CCC2)cc1` (stereo not drawn) [Ex 62, (2E)-2-[4-(cyclobutylsulfonyl)phenyl]-3-cyclopentyl-N-[4-(1,2-dihydroxyethyl)-1,3-thiazol-2-yl]acrylamide], the “Blood glucose lowering ratio (%)” value with ICR mice is given as 19%. For the same compound, the activation at 10 µM in test [1] came to 227%.

Take `CC(O)(CO)c1csc(NC(=O)/C(=C/C2CCCC2)c2ccc(S(=O)(=O)C3CCC3)cc2)n1` (stereo not drawn) [Ex 73, (2E)-2-[4-(cyclobutylsulfonyl)phenyl]-3-cyclopentyl-N-[4-(1,2-dihydroxy-1-methylethyl)-1,3-thiazol-2-yl]acrylamide]: in the test on ICR mice, the “Blood glucose lowering ratio (%)” value worked out at 27%. Further, the activation at 10 µM in test [1] was 235%.
